# Tested on: isolated guinea pig gallbladder
# Assay: Functional activity in isolated guinea pig gallbladder preparation
# Assay type: cell-based
# Settings: Cavia porcellus, expressed as % CCK-induced maximal response; for activation at 30 µM: 3 × 10^-5 M test compound, read-out: % Contraction (3 × 10^-5 M); for activation at 1 µM: 1 × 10^-6 M test compound, read-out: %Contraction (1 × 10^-6 M)
# Protocol: 3. GUINEA PIG GALL BLADDER ASSAY
# Gallbladders are removed from guinea pigs sacrificed by cervical dislocation. The isolated gallbladders are cleaned of adherent connective tissue and cut into two rings from each animal (2-4 mm in length). The rings are subsequently suspended in organ chambers containing a physiological salt solution (118.4 mM NaCl, 4.7 mM KCl, 1.2 mM MgSO4, 2.5 mM CaCl2, 1.2 mM KH2 […], 25 mM NaHCO3, 11.1 mM dextrose). The bathing solution is maintained at 37° C. and aerated with 95% O2 /5% CO2. Tissues are connected via gold chains and stainless steel mounting wires to isometric force displacement transducers (Grass, Model FT03 D). Responses are then recorded on a polygraph (Grass, Model 7E).
# Rings are gradually stretched (over a 120 min. period) to a basal resting tension of 1 gm which is maintained throughout the experiment. During the basal tension adjustment period, the rings are exposed to acetylcholine (10^-6 M) four times to verify tissue contractility. The tissues are then exposed to a submaximal dose of sulfated CCK-8 (Sigma, 3×10^-9 M). After obtaining a stable response, the tissues are washed out 3 times rapidly and every 5 to 10 minutes for 1 hour to reestablish a stable baseline.
# Compounds are dissolved in dimethylsulfoxide ([…]) followed by a concentration-response curve to sulfated CCK-8 (10^-10 to 10^-6 M) in the presence of the highest dose of the test compound. As a final test, ACH (10 mM) is added to induce maximal contraction. A minimum of three determinations of activity are made for each test compound.
Structure (SMILES),activation at 30 µM [%],activation at 1 µM [%]
"COc1ccc(N(C(=O)CN2C(=O)C(Cc3n[nH]c4ccccc34)(OC)C(=O)N(c3ccccc3)c3ccccc32)C(C)C)cc1 (stereo not drawn) [Example 43, 2-[3-(1H-Indazol-3-ylmethyl)-3-methoxy-2,4-dioxo-5-phenyl-2,3,4,5-tetrahydro-benzo[b][1,4]diazepin-1-yl]-N-isopropyl-N-(4-methoxy-phenyl) acetamide]",61,
"COc1ccc(N(C(=O)CN2C(=O)C(Cc3nn(C)c4ccccc34)C(=O)N(c3ccccc3)c3ccccc32)C(C)C)cc1 (stereo not drawn) [Example 44, N-Isopropyl-N-(4-methoxy-phenyl)-2-[3-(1-methyl-1H-indazol-3-ylmethyl)-2,4-dioxo-5-phenyl-2,3,4,5-tetrahydro-benzo[b][1,4]diazepin-1-yl]acetamide]",83,57
"COc1ccc(N(C(=O)CN2C(=O)C(C)(Cc3nn(C)c4ccccc34)C(=O)N(c3ccccc3)c3ccccc32)C(C)C)cc1 (stereo not drawn) [Example 45, N-Isopropyl-N-(4-methoxy-phenyl)-2-[3-(1-methyl-1H-indazol-3-ylmethyl)-3-methyl-2,4-dioxo-5-phenyl-2,3,4,5-tetrahydro-benzo[b][1,4]diazepin-1-yl]acetamide]",,57
"COc1ccc(N(C(=O)CN2C(=O)C(Cc3nccn3-c3ccccc3)C(=O)N(c3ccccc3)c3ccccc32)C(C)C)cc1 (stereo not drawn) [Example 46, 2-(2,4-Dioxo-5-phenyl-3-(1-phenyl-imidazo-2-yl)methyl-2,3,4,5-tetrahydro-benzo[b][1,4]diazepin-1-yl)-N-isopropyl-N-(4-methoxy)-phenyl acetamide]",6,6
"COc1ccc(N(C(=O)CN2C(=O)C(Cc3noc4ccccc34)C(=O)N(c3ccccc3)c3ccccc32)C(C)C)cc1 (stereo not drawn) [Example 47, 2-(3-Benzo[d]isoxazol-3-ylmethyl-2,4-dioxo-5-phenyl-2,3,4,5-tetrahydro-benzo[b][1,4]diazepin-1-yl)-N-isopropyl-N-(4-methoxy-phenyl) acetamide]",,92
"COc1ccc(N(C(=O)CN2C(=O)C(Cc3noc4ncccc34)C(=O)N(c3ccccc3)c3ccccc32)C(C)C)cc1 (stereo not drawn) [Example 48, N-Isopropyl-2-(3-isoxazolo[5,4-b]pyridin-3-ylmethyl-2,4-dioxo-5-phenyl-2,3,4,5-tetrahydro-benzo[b][1,4]diazepin-1-yl)-N-(4-methoxy-phenyl) acetamide]",75,
"COc1ccc(N(C(=O)CN2C(=O)C(Cc3n[nH]c4ncccc34)C(=O)N(c3ccccc3)c3ccccc32)C(C)C)cc1 (stereo not drawn) [Example 50, 2-[2,4-Dioxo-5-phenyl-3-(1H-pyrazolo[3,4-b]pyridin-3-ylmethyl)-2,3,4,5-tetrahydro-benzo[b][1,4]diazepin-1-yl]-N-isopropyl-N-(4-methoxy-phenyl)-acetamide]",94,83
"COc1ccc(N(C(=O)CN2C(=O)C(Cc3n[nH]c4c3CCCC4)C(=O)N(c3ccccc3)c3ccccc32)C(C)C)cc1 (stereo not drawn) [Example 51, 2-[2,4-Dioxo-5-phenyl-3-(4,5,6,7-tetrahydro-1H-indazol-3-ylmethyl)-2,3,4,5-tetrahydro-benzo[b][1,4]diazepin-1-yl]-N-isopropyl-N-(4-methoxy-phenyl)-acetamide]",83,82
"CC(C)N(C(=O)CN1C(=O)C(Cc2n[nH]c3ccccc23)C(=O)N(c2ccccc2)c2ccccc21)c1ccc(C(F)(F)F)cc1 (stereo not drawn) [Example 52, 2-[3-(1H-Indazol-3-ylmethyl)-2,4-dioxo-5-phenyl-2,3,4,5-tetrahydro-benzo[b][1,4]diazepin-1-yl]-N-isopropyl-N-(4-trifluoromethyl-phenyl)-acetamide]",96,70
"COc1ccc(N(C(=O)CN2C(=O)C(Cc3n[nH]c4ccccc34)(OC)C(=O)N(c3cccnc3)c3ccccc32)C(C)C)cc1 (stereo not drawn) [Example 53, 2-[3-(1H-Indazol-3-ylmethyl)-3-methoxy-2,4-dioxo-5-pyridin-3-yl-2,3,4,5-tetrahydro-benzo[b][1,4]diazepin-1-yl]-N-isopropyl-N-(4-methoxy-phenyl)-acetamide]",103,96
"COc1ccc(N(C(=O)CN2C(=O)C(Cc3cc(C)nn3Cc3ccccc3)C(=O)N(c3ccccc3)c3ccccc32)C(C)C)cc1 (stereo not drawn) [Example 54, 2-[3-(2-Benzyl-5-methyl-2H-pyrazol-3ylmethyl)-2,4-dioxo-5-phenyl-2,3,4,5-tetrahydro-benzo[b][1,4]diazepin-1-yl]-N-isopropyl-N-(4-methoxy-phenyl)-acetamide]",43,63
"COc1ccc(N(C(=O)CN2C(=O)C(Cc3cc(C)n[nH]3)C(=O)N(c3ccccc3)c3ccccc32)C(C)C)cc1 (stereo not drawn) [Example 55, N-Isopropyl-N-(4-methoxy-phenyl)-2-[3-(5-methyl-2H-pyrazol-3ylmethyl)-2,4-dioxo-5-phenyl-2,3,4,5-tetrahydro-benzo[b][1,4]diazepin-1-yl]-acetamide]",,21
"COc1ccc(N(C(=O)CN2C(=O)C(Cn3cnc4ccccc43)C(=O)N(c3ccccc3)c3ccccc32)C(C)C)cc1 (stereo not drawn) [Example 56, 2-(3-Benzoimidazol-1-ylmethyl-2,4-dioxo-5-phenyl-2,3,4,5-tetrahydro-benzo[b][1,4]diazepin-1-yl]-N-isopropyl-N-(4-methoxy-phenyl)-acetamide]",98,90
"CC(C)N(C(=O)CN1C(=O)C(Cc2n[nH]c3ccccc23)C(=O)N(c2ccccc2)c2ccccc21)c1ccc(F)cc1 (stereo not drawn) [Example 57, N-(4-Fluoro-phenyl)-2-[3-(1H-indazol-3-ylmethyl)-2,4-dioxo-5-phenyl-2,3,4,5-tetrahydro-benzo[b][1,4]diazepin-1-yl]-N-isopropyl-acetamide]",134,99
"COc1ccc(N(C(=O)CN2C(=O)C(Cc3n[nH]c4ccccc34)C(=O)N(c3ccsc3)c3ccccc32)C(C)C)cc1 (stereo not drawn) [Example 58, 2-[3-(1H-Indazol-3-ylmethyl)-2,4-dioxo-5-thiophen-3-yl-2,3,4,5-tetrahydro-benzo[b][1,4]diazepin-1-yl]-N-isopropyl-N-(4-methoxy-phenyl)-acetamide]",95,80
"COc1ccc(N(C(=O)CN2C(=O)C(Cc3n[nH]c4ccccc34)C(=O)N(c3cccs3)c3ccccc32)C(C)C)cc1 (stereo not drawn) [Example 59, 2-[3-(1H-Indazol-3-ylmethyl)-2,4-dioxo-5-thiophen-2-yl-2,3,4,5-tetrahydro-benzo[b][1,4]diazepin-1-yl]-N-isopropyl-N-(4-methoxy-phenyl)-acetamide]",102,100
"Cc1ccc(N(C(=O)CN2C(=O)C(Cc3n[nH]c4cc(F)ccc34)C(=O)N(c3ccccc3)c3ccccc32)C(C)C)cc1 (stereo not drawn) [Example 60, 2-[3-(6-Fluoro-1H-indazol-3-ylmethyl)-2,4-dioxo-5-phenyl-2,3,4,5,tetrahydro-benzo[b][1,4]diazepin-1-yl]-N-isopropyl-N-p-tolyl-acetamide]",81,94
"O=C1C(Cc2n[nH]c3ccccc23)C(=O)N(c2ccccc2)c2ccccc2N1CC(=O)N(c1ccccc1)C1CC1 (stereo not drawn) [Example 61, N-Cyclopropyl-2-[3-(1H-indazol-3-ylmethyl)-2,4-dioxo-5-phenyl-2,3,4,5,tetrahydro-benzo[b][1,4]diazepin-1-yl]-N-phenyl-acetamide]",77,63
"COc1ccc(N(C(=O)CN2C(=O)C(Cc3n[nH]c4ccccc34)C(=O)N(c3ccccc3)c3ccccc32)C2CCCC2)cc1 (stereo not drawn) [Example 62, N-Cyclopentyl-2-[3-(1H-indazol-3-ylmethyl)-2,4-dioxo-5-phenyl-2,3,4,5,tetrahydro-benzo[b][1,4]diazepin-1-yl]-N-(4-methoxy-phenyl)-acetamide]",86,96
"CC(C)N(C(=O)CN1C(=O)C(Cc2n[nH]c3cc(F)ccc23)C(=O)N(c2ccccc2)c2ccccc21)c1ccc(F)cc1 (stereo not drawn) [Example 63, 2-[3-(6-Fluoro-1H-indazol-3-ylmethyl)-2,4-dioxo-5-phenyl-2,3,4,5,tetrahydro-benzo[b][1,4]diazepin-1-yl]-N-(4-fluoro-phenyl)-N-isopropyl-acetamide]",96,77
"CC(=O)n1nc(CC2C(=O)N(CC(=O)N(c3ccc(F)cc3)C(C)C)c3ccccc3N(c3ccccc3)C2=O)c2ccc(F)cc21 (stereo not drawn) [Example 64, 2-[3-(1-Acetyl-6-fluoro-1H-indazol-3-ylmethyl)-2,4-dioxo-5-phenyl-2,3,4,5,tetrahydro-benzo[b][1,4]diazepin-1-yl]-N-(4-fluoro-phenyl)-N-isopropyl-acetamide]",98,67
"CC(C)(C)N(C(=O)CN1C(=O)C(Cc2n[nH]c3ccccc23)C(=O)N(c2ccccc2)c2ccccc21)c1ccccc1 (stereo not drawn) [Example 65, N-tert-Butyl-2-[3-(1H-indazol-3-ylmethyl)-2,4-dioxo-5-phenyl-2,3,4,5,tetrahydro-benzo[b][1,4]diazepin-1-yl]-N-phenyl-acetamide]",93,88

# Reference: patent publication US5859007A, “CCK or gastrin modulating benzo [b][1,4] diazepines derivatives” (Glaxo Wellcome Inc., priority 1994, dated 1999)
